Series [1] has as its target Carbonic anhydrase 9 (Homo sapiens, UniProt Q16790). In words: Inhibition of human recombinant carbonic anhydrase 9 assessed as CO2 hydration preincubated for 15 mins prior to testing measured for 10 to 100 secs by phenol red dye-based stopped-flow assay.
In series [2] the test system is Rattus norvegicus. In words: Anticonvulsant activity in Wistar rat assessed as protection against maximal electroshock-induced seizures at 30 mg/kg, po administered 0.5 hrs prior to 150 mA current induction relative to control. It is filed as functional. (In general: Protection in the maximal electroshock model is a classic sign of anticonvulsant action.)
Series [3] relates to Mus musculus. Nature of the series: Anticonvulsant activity in Swiss albino mouse assessed as protection against subcutaneous PTZ-induced seizures at 30 mg/kg, ip administered 3 hrs prior to PTZ-induction relative to control. It counts as functional.
Series [4] concerns Mus musculus. In words: Anticonvulsant activity in Swiss albino mouse assessed as protection against subcutaneous PTZ-induced seizures at 100 mg/kg, ip administered 0.5 hrs prior to PTZ-induction relative to control. It is filed as functional.
Series [5] deals with Mus musculus. Nature of the series: Anticonvulsant activity in Swiss albino mouse assessed as protection against subcutaneous PTZ-induced seizures at 100 mg/kg, ip administered 3 hrs prior to PTZ-induction relative to control. It is filed as functional.
Series [6] concerns Rattus norvegicus. In words: Anticonvulsant activity in Wistar rat assessed as protection against maximal electroshock-induced seizures at 30 mg/kg, po administered 4 hrs prior to 150 mA current induction relative to control. It is filed as functional.
In series [7] the test system is Mus musculus. Nature of the series: Anticonvulsant activity in Swiss albino mouse assessed as protection against maximal electroshock-induced seizures at 30 mg/kg, ip administered 1 hr prior to 50 mA current induction relative to control. It is filed as functional.
Series [8] relates to Mus musculus. Nature of the series: Anticonvulsant activity in Swiss albino mouse assessed as protection against maximal electroshock-induced seizures at 30 mg/kg, ip administered 4 hrs prior to 50 mA current induction relative to control. It is filed as functional.
Series [9] concerns Mus musculus. Nature of the series: Neurotoxicity in Swiss albino mouse at 30 mg/kg, ip after 30 to 120 mins by rotarod test. It counts as toxicity, organism-based. Particulars: in vivo. In general terms: The rotarod test checks motor coordination on a turning rod.
The test system of series [10] is Rattus norvegicus. Nature of the series: Sub-acute toxicity in Wistar rat assessed as lymphocytes level at 100 mg/kg, po administered daily for 14 days (reference value: 72.3 +/- 6.7%). The following applies: in vivo, 336 h. It counts as organism-based.
The subject of series [11] is Rattus norvegicus. Nature of the series: Sub-acute toxicity in Wistar rat assessed as monocytes level at 100 mg/kg, po administered daily for 14 days (reference value: 2.6 +/- 1.5%). The following applies: in vivo, 336 h. It counts as organism-based.
Series [12] relates to Rattus norvegicus. In words: Sub-acute toxicity in Wistar rat assessed as alkaline phosphatase level at 100 mg/kg, po administered daily for 14 days (reference value: 113.2 +/- 15.1 U/L). It is filed as organism-based. The following applies: in vivo, 336 h.
The test system of series [13] is Rattus norvegicus. Nature of the series: Sub-acute toxicity in Wistar rat assessed as creatinine level at 100 mg/kg, po administered daily for 14 days (reference value: 0.62 +/- 0.3 mg/dl). It counts as organism-based. The following applies: in vivo, 336 h.
For series [14], the system named is Rattus norvegicus. Nature of the series: Sub-acute toxicity in Wistar rat assessed as uric acid level at 100 mg/kg, po administered daily for 14 days (reference value: 3.9 +/- 2.8 mg/dl). Particulars: in vivo, 336 h. It counts as organism-based.
Series [15] concerns Rattus norvegicus. In words: Sub-acute toxicity in Wistar rat assessed as Cl- level at 100 mg/kg, po administered daily for 14 days (reference value: 104.1 +/- 6.2 mEq/L). It is filed as organism-based. Particulars: in vivo, 336 h.
The subject of series [16] is Rattus norvegicus. In words: Sub-acute toxicity in Wistar rat assessed as effect on food intake at 100 mg/kg, po administered daily for 14 days. It counts as organism-based. The following applies: in vivo, 336 h.
For series [17], the species on record is Homo sapiens. Nature of the series: Selectivity ratio of Ki for human recombinant carbonic anhydrase 9 to Ki for human recombinant carbonic anhydrase 7.

As to `Cc1ccc(N2CCN(c3ccc(/C=N/NC(=O)c4ccc(S(N)(=O)=O)cc4)cc3)CC2)c(C)c1`, the Ki in [1] was found to be 1.66 µM. The Activity is listed as 67 - 84% in series [2]; 67% in series [3]; 50% in series [4]; 83% in series [5]; 50% in series [6]; 60% in [7]. The Activity in series [8] was 50%; in series [9] it was “Non-Toxic”; in series [10], 71.5%; in series [11], 2%; in [12] it was 96.5 U/L; in series [13], 0.75 mg/dL. The Activity in [14] was 4.33 mg/dL; in series [15] it was 105.6 mEq/L; in series [16], “Non-Toxic”. Moreover, the Ratio Ki in [17] was 93.

As usually defined, the Ki is the equilibrium dissociation constant of an inhibitor or competing ligand from its target.
